Results as given in PubChem BioAssay (NCI).
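Briefly, cells in 96-well plates were exposed to five compound concentrations for 48 h, and endpoints were estimated by linear interpolation. TGI: total growth inhibition.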

Experiments:
Assay in all cases: NCI tumour cell line growth inhibition, 48 h
[1] = test system: NCI-H460 lung
[2] = test system: HL-60(TB) leukemia
[3] = test system: MOLT-4 leukemia
[4] = test system: MDA-MB-231 breast
[5] = test system: IGROV1 ovarian
[6] = test system: A549 NSCLC
[7] = test system: RXF 393 renal
[8] = test system: HS 578T breast
[9] = test system: CCRF-CEM leukemia
[10] = test system: DU-145 prostate

Compound	TGI [1] [µM]	TGI [2] [µM]	TGI [3] [µM]	TGI [4] [µM]	TGI [5] [µM]	TGI [6] [µM]	TGI [7] [µM]	TGI [8] [µM]	TGI [9] [µM]	TGI [10] [µM]
Cn1cc(-c2csc(-c3cn(C)c4ccccc34)n2)c2ccccc21	> 100	> 100	42	60.1	> 100	> 100	54.4	> 100	> 100	> 100
CCOC(=O)c1c(NC(=S)Nc2ccccc2)sc2c1CCOC2	> 100	> 100	> 100	> 100	> 100	> 100	> 100	> 100	> 100	> 100
C=C1C[C@H](O)[C@H](Br)C(C)(C)C12CCC(C)(Cl)C(Br)C2 (stereo not given in full)	9.95	13.4	75	11.3	18.8	9.12	10.6	23.6	75	15.8
O=CN1CCN(C(=O)c2ccc(Cl)c(Cl)c2)C1=S	36.2	45.7	53.8	30.8	30.9	35	35	> 100	24.2	30.9
O=C(N/N=C(/COc1ccccc1)N=Cc1cccnc1)c1ccncc1	> 100	> 100	> 100	> 100	> 100	> 100	> 100	> 100	> 100	> 100
OC1CSc2nc3ccccc3n2C1 (stereo not given)	> 100	> 100	> 100	> 100	> 100	> 100	> 100	77.7	> 100	> 100
c1ccc([I+]c2ccccc2)cc1	> 100	> 100	> 100	> 100	> 100	> 100	> 100	> 100	> 100	> 100
CC(C)N(C(C)C)S(=O)(=O)C[C@]12CC[C@H](CC13OCC(CS(=O)(=O)c1ccccc1)O3)C2(C)C (stereo not given in full)	> 100	61.2	45.7	> 100	> 59.5	> 100	> 100	> 100	> 100	> 100
